From US9562085B2, “Antimicrobial peptide” (priority 2013, dated 2017)
Where two headings read alike, the source gives them in different places. Non-standard residues stand in square brackets, D forms with d. Residues, ends and D or L forms follow the SMILES beside them. *: point of attachment. X1 = NCCOCCOCCOCCOCCOCCOCCOCCOCCOCCOCCOC(=O)*; Hexanoyl = CCCCCC(=O)*; Propionyl = CCC(=O)*

System: S. aureus JAR
Format: cell-based
Procedure: S. aureus JAR is described in Campoccia et al. (Int. J. Artif. Organs, 2008 September; 31(9):841-7).
For the in vitro killing assay with P10 variants, S. aureus JAR ([…] CFU/ml) were incubated for 2 hours at 37° C. with various concentrations of the peptides in PBS or in PBS/human plasma (1/1, v/v). […] The LC99.9 is the average value of two independent experiments.

CC[C@H](C)[C@H](NC(=O)[C@H](CCCCN)NC(=O)[C@H](CCCCN)NC(=O)[C@H](Cc1ccc(O)cc1)NC(=O)[C@H](CCC(=O)O)NC(=O)[C@H](CCCNC(=N)N)NC(=O)[C@H](C)NC(=O)[C@H](CC(C)C)NC(=O)OCCOCCOCCOCCOCCOCCOCCOCCOCCOCCOCCN)C(=O)N[C@H](C(=O)N[C@@H](CCC(=O)O)C(=O)N[C@@H](CCCCN)C(=O)N[C@@H](CC(C)C)C(=O)N[C@@H](CCCCN)C(=O)N[C@@H](CCCNC(=N)N)C(=O)N[C@@H](Cc1c[nH]c2ccccc12)C(=O)N[C@@H](CC(C)C)C(=O)N[C@@H](CCCNC(=N)N)C(=O)N[C@@H](CCC(N)=O)C(=O)N[C@H](C(=O)N[C@@H](CC(C)C)C(=O)N[C@@H](CCCNC(=N)N)C(=O)N[C@H](C(=O)N[C@@H](CC(C)C)C(=O)N[C@@H](CCCNC(=N)N)C(N)=O)[C@@H](C)O)C(C)C)C(C)C [Peptide 1302-7, oLAREYKKIVEKLKRWLRQVLRTLRB] (X1-LAREYKKIVEKLKRWLRQVLRTLR-NH2; N-terminus assumed) was tested, and the “LC99.9 (μM) (50% plasma)” value (JAR, 2 h) was 102.4 µM and the “LC99.9 (μM) (PBS)” value (JAR, 2 h) was 1.6 µM.

“Ac-LAREYHKIVEKLKRWLRQVLRTLR-NH2 [Peptide 1302-28, JLAREYHKIVEKLKRWLRQVLRTLRB]” was tested, and the “LC99.9 (μM) (50% plasma)” value (JAR, 2 h) was 102.4 µM and the “LC99.9 (μM) (PBS)” value (JAR, 2 h) was 1.2 µM.

For CC[C@H](C)[C@H](NC(=O)[C@H](CCCCN)NC(=O)[C@H](CCCCN)NC(=O)[C@H](Cc1ccc(O)cc1)NC(=O)[C@H](CCC(=O)O)NC(=O)[C@H](CCCNC(=N)N)NC(=O)[C@H](C)NC(=O)[C@H](CC(C)C)NC(C)=O)C(=O)N[C@H](C(=O)N[C@@H](CCC(=O)O)C(=O)N[C@H](CCCCN)C(=O)N[C@@H](CC(C)C)C(=O)N[C@@H](CCCCN)C(=O)N[C@@H](CCCNC(=N)N)C(=O)N[C@@H](Cc1c[nH]c2ccccc12)C(=O)N[C@@H](CC(C)C)C(=O)N[C@@H](CCCNC(=N)N)C(=O)N[C@@H](CCC(N)=O)C(=O)N[C@H](C(=O)N[C@@H](CC(C)C)C(=O)N[C@@H](CCCNC(=N)N)C(=O)N[C@H](C(=O)N[C@@H](CC(C)C)C(=O)N[C@@H](CCCNC(=N)N)C(N)=O)[C@@H](C)O)C(C)C)C(C)C [Peptide 1301-11, JLAREYKKIVEkLKRWLRQVLRTLRB] (Ac-LAREYKKIVE[dK]LKRWLRQVLRTLR-NH2), the “LC99.9 (μM) (50% plasma)” value (JAR, 2 h) was 19.2 µM and the “LC99.9 (μM) (PBS)” value (JAR, 2 h) was 0.4 µM.

For “Ac-KKIVEKLKRWLRQ-NH2 [Peptide 1302-63, JKKIVEKLKRWLRQB]”, the “LC99.9 (μM) (50% plasma)” value (JAR, 2 h) was 102.4 µM and the “LC99.9 (μM) (PBS)” value (JAR, 2 h) was greater than 3.2 µM.

“Ac-LAREYKKIVEKIKRWLRQVLRTLR-NH2 [Peptide 1302-33, JLAREYKKIVEKIKRWLRQVLRTLRB]” was tested, and the “LC99.9 (μM) (50% plasma)” value (JAR, 2 h) was 102.4 µM and the “LC99.9 (μM) (PBS)” value (JAR, 2 h) was 3.2 µM.

With “Ac-LAREYKKIVEKLKRWLHQVLRTLR-NH2 [Peptide 1302-41, JLAREYKKIVEKLKRWLHQVLRTLRB]” the “LC99.9 (μM) (50% plasma)” value (JAR, 2 h) was 102.4 µM and the “LC99.9 (μM) (PBS)” value (JAR, 2 h) was 1.6 µM.

With “Ac-LAREYKKIVEKLKRWLRQVVRTLR-NH2 [Peptide 1302-48, JLAREYKKIVEKLKRWLRQVVRTLRB]” the “LC99.9 (μM) (50% plasma)” value (JAR, 2 h) was 76.8 µM and the “LC99.9 (μM) (PBS)” value (JAR, 2 h) was 1.2 µM.

For CC[C@H](C)[C@H](NC(=O)[C@@H](CCCCN)NC(=O)[C@H](CCCCN)NC(=O)[C@H](Cc1ccc(O)cc1)NC(=O)[C@H](CCC(=O)O)NC(=O)[C@H](CCCNC(=N)N)NC(=O)[C@H](C)NC(=O)[C@H](CC(C)C)NC(C)=O)C(=O)N[C@H](C(=O)N[C@@H](CCC(=O)O)C(=O)N[C@@H](CCCCN)C(=O)N[C@@H](CC(C)C)C(=O)N[C@@H](CCCCN)C(=O)N[C@@H](CCCNC(=N)N)C(=O)N[C@@H](Cc1c[nH]c2ccccc12)C(=O)N[C@@H](CC(C)C)C(=O)N[C@@H](CCCNC(=N)N)C(=O)N[C@@H](CCC(N)=O)C(=O)N[C@H](C(=O)N[C@@H](CC(C)C)C(=O)N[C@@H](CCCNC(=N)N)C(=O)N[C@H](C(=O)N[C@@H](CC(C)C)C(=O)N[C@@H](CCCNC(=N)N)C(N)=O)[C@@H](C)O)C(C)C)C(C)C [Peptide 1301-7, JLAREYKkIVEKLKRWLRQVLRTLRB] (Ac-LAREYK[dK]IVEKLKRWLRQVLRTLR-NH2), the “LC99.9 (μM) (50% plasma)” value (JAR, 2 h) was 25.6 µM and the “LC99.9 (μM) (PBS)” value (JAR, 2 h) was 0.6 µM.

With CC[C@H](C)[C@H](NC(=O)[C@H](CCCCN)NC(=O)[C@H](CCCCN)NC(=O)[C@H](Cc1ccc(O)cc1)NC(=O)[C@H](CCC(=O)O)NC(=O)[C@H](CCCNC(=N)N)NC(=O)[C@@H](C)NC(=O)[C@H](CC(C)C)NC(C)=O)C(=O)N[C@H](C(=O)N[C@@H](CCC(=O)O)C(=O)N[C@@H](CCCCN)C(=O)N[C@@H](CC(C)C)C(=O)N[C@@H](CCCCN)C(=O)N[C@@H](CCCNC(=N)N)C(=O)N[C@@H](Cc1c[nH]c2ccccc12)C(=O)N[C@@H](CC(C)C)C(=O)N[C@@H](CCCNC(=N)N)C(=O)N[C@@H](CCC(N)=O)C(=O)N[C@H](C(=O)N[C@@H](CC(C)C)C(=O)N[C@@H](CCCNC(=N)N)C(=O)N[C@H](C(=O)N[C@@H](CC(C)C)C(=O)N[C@@H](CCCNC(=N)N)C(N)=O)[C@@H](C)O)C(C)C)C(C)C [Peptide 1301-2, JLaREYKKIVEKLKRWLRQVLRTLRB] (Ac-L[dA]REYKKIVEKLKRWLRQVLRTLR-NH2) the “LC99.9 (μM) (50% plasma)” value (JAR, 2 h) was 38.4 µM and the “LC99.9 (μM) (PBS)” value (JAR, 2 h) was 0.6 µM.

CCC(=O)N[C@@H](CC(C)C)C(=O)N[C@@H](C)C(=O)N[C@@H](CCCNC(=N)N)C(=O)N[C@@H](CCC(=O)O)C(=O)N[C@@H](Cc1ccc(O)cc1)C(=O)N[C@@H](CCCCN)C(=O)N[C@@H](CCCCN)C(=O)N[C@H](C(=O)N[C@H](C(=O)N[C@@H](CCC(=O)O)C(=O)N[C@@H](CCCCN)C(=O)N[C@@H](CC(C)C)C(=O)N[C@@H](CCCCN)C(=O)N[C@@H](CCCNC(=N)N)C(=O)N[C@@H](Cc1c[nH]c2ccccc12)C(=O)N[C@@H](CC(C)C)C(=O)N[C@@H](CCCNC(=N)N)C(=O)N[C@@H](CCC(N)=O)C(=O)N[C@H](C(=O)N[C@@H](CC(C)C)C(=O)N[C@@H](CCCNC(=N)N)C(=O)N[C@H](C(=O)N[C@@H](CC(C)C)C(=O)N[C@@H](CCCNC(=N)N)C(N)=O)[C@@H](C)O)C(C)C)C(C)C)[C@@H](C)CC [Peptide 1302-11, ULAREYKKIVEKLKRWLRQVLRTLRB] (Propionyl-LAREYKKIVEKLKRWLRQVLRTLR-NH2) was tested, and the “LC99.9 (μM) (50% plasma)” value (S. aureus JAR, 2 hours at 37° C. in PBS/human plasma (1/1, v/v), concentration killing 99.9% of the bacteria, average of two experiments) was 102.4 µM and the “LC99.9 (μM) (PBS)” value (S. aureus JAR, 2 hours at 37° C. in PBS, concentration killing 99.9% of the bacteria, average of two experiments) was 1.6 µM.

For CC[C@H](C)[C@H](NC(=O)[C@H](CCCCN)NC(=O)[C@H](CCCCN)NC(=O)[C@H](Cc1ccc(O)cc1)NC(=O)[C@H](CCC(=O)O)NC(=O)[C@H](CCCNC(=N)N)NC(=O)[C@H](C)NC(=O)[C@H](CC(C)C)NC(C)=O)C(=O)N[C@H](C(=O)N[C@@H](CCC(=O)O)C(=O)N[C@@H](CCCCN)C(=O)N[C@@H](CC(C)C)C(=O)N[C@@H](CCCCN)C(=O)N[C@@H](CCCNC(=N)N)C(=O)N[C@@H](Cc1c[nH]c2ccccc12)C(=O)N[C@@H](CC(C)C)C(=O)N[C@@H](CCCNC(=N)N)C(=O)N[C@H](CCC(N)=O)C(=O)N[C@H](C(=O)N[C@@H](CC(C)C)C(=O)N[C@@H](CCCNC(=N)N)C(=O)N[C@H](C(=O)N[C@@H](CC(C)C)C(=O)N[C@@H](CCCNC(=N)N)C(N)=O)[C@@H](C)O)C(C)C)C(C)C [Peptide 1301-18, JLAREYKKIVEKLKRWLRqVLRTLRB] (Ac-LAREYKKIVEKLKRWLR[dQ]VLRTLR-NH2), the “LC99.9 (μM) (50% plasma)” value (JAR, 2 h) was 38.4 µM and the “LC99.9 (μM) (PBS)” value (JAR, 2 h) was 0.6 µM.

In the case of CC[C@H](C)[C@H](NC(=O)[C@H](CCCCN)NC(=O)[C@H](CCCCN)NC(=O)[C@H](Cc1ccc(O)cc1)NC(=O)[C@H](CCC(=O)O)NC(=O)[C@H](CCCNC(=N)N)NC(=O)[C@H](C)NC(=O)[C@H](CC(C)C)NC(C)=O)C(=O)N[C@H](C(=O)N[C@@H](CCC(=O)O)C(=O)N[C@@H](CCCCN)C(=O)N[C@@H](CC(C)C)C(=O)N[C@@H](CCCCN)C(=O)N[C@@H](CCCNC(=N)N)C(=O)N[C@@H](Cc1c[nH]c2ccccc12)C(=O)N[C@@H](CC(C)C)C(=O)N[C@@H](CCCNC(=N)N)C(=O)N[C@@H](CCC(N)=O)C(=O)N[C@H](C(=O)N[C@@H](CC(C)C)C(=O)N[C@@H](CCCNC(=N)N)C(=O)N[C@@H](C(=O)N[C@@H](CC(C)C)C(=O)N[C@@H](CCCNC(=N)N)C(N)=O)[C@H](C)O)C(C)C)C(C)C [Peptide 1301-22, JLAREYKKIVEKLKRWLRQVLRtLRB] (Ac-LAREYKKIVEKLKRWLRQVLR[dT]LR-NH2), the “LC99.9 (μM) (50% plasma)” value (JAR, 2 h) is reported as 38.4 µM and the “LC99.9 (μM) (PBS)” value (JAR, 2 h) is reported as 0.6 µM.

For “Ac-LAREYKKIVEKLKRWLRQVIRTLR-NH2 [Peptide 1302-47, JLAREYKKIVEKLKRWLRQVIRTLRB]”, the “LC99.9 (μM) (50% plasma)” value (JAR, 2 h) was 76.8 µM and the “LC99.9 (μM) (PBS)” value (JAR, 2 h) was 1.6 µM.

For CCCCCC(=O)N[C@@H](CC(C)C)C(=O)N[C@@H](C)C(=O)N[C@@H](CCCNC(=N)N)C(=O)N[C@@H](CCC(=O)O)C(=O)N[C@@H](Cc1ccc(O)cc1)C(=O)N[C@@H](CCCCN)C(=O)N[C@@H](CCCCN)C(=O)N[C@H](C(=O)N[C@H](C(=O)N[C@@H](CCC(=O)O)C(=O)N[C@@H](CCCCN)C(=O)N[C@@H](CC(C)C)C(=O)N[C@@H](CCCCN)C(=O)N[C@@H](CCCNC(=N)N)C(=O)N[C@@H](Cc1c[nH]c2ccccc12)C(=O)N[C@@H](CC(C)C)C(=O)N[C@@H](CCCNC(=N)N)C(=O)N[C@@H](CCC(N)=O)C(=O)N[C@H](C(=O)N[C@@H](CC(C)C)C(=O)N[C@@H](CCCNC(=N)N)C(=O)N[C@H](C(=O)N[C@@H](CC(C)C)C(=O)N[C@@H](CCCNC(=N)N)C(N)=O)[C@@H](C)O)C(C)C)C(C)C)[C@@H](C)CC [Peptide 1302-8, bLAREYKKIVEKLKRWLRQVLRTLRB] (Hexanoyl-LAREYKKIVEKLKRWLRQVLRTLR-NH2), the “LC99.9 (μM) (50% plasma)” value (JAR, 2 h) was 102.4 µM and the “LC99.9 (μM) (PBS)” value (JAR, 2 h) was 1.2 µM.
